Assay results as given in US7041276B2, “Methods of screening agents for activity using teleosts” (priority 1998, dated 2006).
“Also recorded” adds a separate entry of the source.

What was measured:
mice and rats = settings: TOXNET Web Search and other sources; cited from earlier work
zebrafish embryos [1] = experiment: Five-day zebrafish toxicity testing; format: in vivo
Procedure: Fertilized zebrafish embryos were obtained by natural spawning in our aquaculture facility. To reduce variations between batches, randomized samples of embryos from 3 or 4 independent matings were used. The test medium was prepared by combining 5 g of Instant Ocean Salt with 3 g of CaSO4 in 25 liters of distilled water, according to Westerfield, supra. The embryos were maintained in the test medium throughout the experiments. Embryos at 24 hours of development (with chorion) were exposed continuously for five days to chemical compounds at different concentrations of the chemical compounds and controls. In general, the concentrations ranged from 100 nanomolar (nM) to 100 micromolar (μM). Tests were repeated four times for each series of dilutions, and a standard deviation was calculated for each treatment (see “Statistical Methods” section). Ten embryos per concentration were exposed in a total volume of 1 ml (constant ratio of 100 μl/embryo) using a 24 multi-well plate. (Other sizes of multi-well plates, such as 96-well plates can also be used to facilitate screening.) The compounds were renewed daily. In all cases, 0.1% of dimethyl sulfoxide (DMSO) was used as a carrier solvent during the treatment. Controls with and without 0.1% DMSO were performed in all experiments. This approach has long been used to introduce anesthetics and other chemicals into fish embryos (Westerfield, supra).
Experiments were carried out at a constant temperature (28–28.5° C.) in the dark to protect the compounds from decomposition due to light exposure. Dead embryos were removed daily, counted, and used to calculate the Median Lethal Concentration (LC50, see “Statistical Methods” section herein). Each day, surviving embryos were analyzed visually under a dissecting binocular microscope (Zeiss, amplification 30–50×). Macroscopic malformations (such as axial defects, embryolethality, growth inhibition, general malformations, including microcephaly, macrocephaly, tail truncation, tail malformation, loss of axial structures, such as somites, etc.) were observed, classified, and counted to assess whole animal toxicity. Compounds that were lethal or induced these or any noted malformations or disruptions during development (e.g., during the first 5 days of development) were further examined for toxic effects on organs. The embryonic developmental stage that is affected by the toxic compound can be determined. Organ toxicity can be assessed in surviving embryos using in situ hybridization, enzymatic assays, and immunochemistry procedures.
Toxic activity in the kidney (Pronephros) can be assessed visually by colorimetric staining of the kidney of the treated whole animal (e.g., zebrafish). Zebrafish pronephros express high levels of the enzyme alkaline phosphatase that can be easily assayed using a chromogenic dye. To stain kidneys in zebrafish embryos, embryos were fixed with 2% paraformaldehyde overnight at 4° C. and then treated with methanol 100% for 30 minutes at room temperature. […]
For the concentrations tested with aspirin and dexamethasone in these studies, there was no partial lethality and the geometric mean of the parameters “no mortality” (0%) and “mortality” (100%) of the effect concentration was taken as the LC50 and binomial confidence limits were calculated according to Stephan, “Methods for Calculating LD50” in Aquatic Toxicology and Hazard Evaluation (F. L. Mayce and J. L. Hamelink eds.) ASTM STP 634, pp. 65–84. […]

zebrafish embryos [2] = experiment: Rescue of induced cell death activity; format: in vivo; settings: for opacity at two hours after the addition of 100 μM Ibuprofen / opaque cells at one hour after 100 μM Ibuprofen: yolk injection of 25 μM Caspase 3 inhibitor or PBS at 24 hours; for opaque cells at one hour after 100 μM Ibuprofen: Ibuprofen at 26 hours
Procedure: To determine if the teleost model could be used to screen for compounds which blocked or reduced cell death activity, embryos were microinjected with a Caspase 3 inhibitor (Calbiochem #264155) prior to exposure to Ibuprofen.
Specifically, embryos at 24 hours of development were dechorionated and microinjected with either 25 μM Caspase 3 inhibitor or PBS into the yolk. At 26 hours of development, embryos were exposed to 100 μM Ibuprofen by addition to the media.

zebrafish embryos [3] = experiment: Fluorescent detection of cell death in live zebrafish embryos; format: in vivo; settings: 100 μM
Procedure: As an additional test of our cell death detection method, we also examined the ability of the dye to label cells in embryos treated with Ibuprofen, a cyclooxygenase inhibitor, which causes a characteristic pattern of cell death. This pattern consists of a posterior to anterior progression of dying cells as indicated by a progression of opacity changes in the cells of the embryo.
Embryos as 24 hours of development were pretreated for 1 hour with a 100 nanomolar concentration of the fluorescent dye (e.g., benzothiazolium-4-quinolium dye) in embryo media. The embryos were then exposed to 100 μM of Ibuprofen by addition to the media and examined by light and epifluorescence microscopy every 15 minutes for 2 hours. Control embryos were pretreated with the same concentration of dye, but were not exposed to the Ibuprofen. […] This pattern of fluorescently labeled cells was identical to the pattern observed for the opacity changes in the embryo.

zebrafish embryo = experiment: First screening experiments for anti-angiogenic effects (compound added to fish culture media); format: in vivo; settings: for other effects / complications in the embryo / effect on blood vessel formation: added to the fish culture media; for effect on blood vessel formation: AP staining day three; for diffusion into the zebrafish embryo: after addition to the media
Procedure: On the third day of development, embryos were collected for alkaline phosphatase staining. Specifically, embryos were fixed in 4% paraformaldehyde and stained for endogenous alkaline phosphatase activity. Embryos were fixed for 2 hours at room temperature. The embryos were then washed two times in phosphate buffered saline (PBS) and dehydrated by immersion in 25%, 50%, 75% and 100% methanol in phosphate buffered saline with 0.1% Tween (PBT) to permeabilize the embryos. The embryos were then rehydrated and washed in 100% PBT. For staining, embryos were equilibrated in NTMT buffer (0.1M Tris-HCl pH 9.5; 50 mM MgCl; 0.1M NaCl; 0.1% Tween 20) at room temperature. After the embryos equilibrated, embryos were stained by adding 4.5 μl of 75 mg/ml nitro blue tetrazolium (NBT) and 3.5 μL of 50 mg/ml X-phosphate per ml. After staining for 10 minutes, all the blood vessels in the fish embryo were labeled (see FIGS. 2A–2C, 3A–3B, 4, 7). The staining reaction was stopped by addition of PBST. Embryos were then examined on a stereo-dissecting microscope. One advantage of using the zebrafish for this type of assay is that the subintestinal vessels, which are located over the yolk, are both sensitive to factors which effect vessel formation and easily assayed by this method (see, e.g., FIG. 7). The subintestinal vessels are normally present on the dorsolateral surface of the yolk of zebrafish embryos by 48 hours of development. They form a distinct basket shape that extends 50–100 μm from the ventral edge of the somite over the yolk. By assaying the subintestinal vessels at 72 hours of development (24 hours after the subintestinal vessels normally appear), normal variation in the timing of the vessel formation was avoided. The staining procedure is easily automated using commercially available instrumentation.
In our first set of screening experiments for anti-angiogenic effects, we examined the effect of fumagillin, a natural anti-angiogenesis chemical, on blood vessel formation in the zebrafish embryo. The compound was administered by addition to the fish culture media. […] Using the screening parameters described above, we identified two compounds that caused apparently specific anti-angiogenic effects. In addition, we identified 16 other compounds that caused a reduction of angiogenic vessel formation in addition to other effects.

zebrafish embryos [4] = experiment: Microinjection of proteins into 24 hour embryos, effect on vessel formation; format: in vivo
Procedure: To examine the effects of proteins and protein fragments (and peptides and peptide fragments) on angiogenesis in teleost embryos, proteins (and protein fragments and peptide fragments) were directly injected into the circulation of 24 hour zebrafish embryos. Embryos were collected and dechorionated as described above. The embryos were then sorted into holding ramps made of 1% agarose in embryo water and oriented with the yolk ball projecting up. Microinjection injection was performed as follows: the proteins were suspended in PBS and backfilled into a pulled glass micropipet. The micropipet was then attached to a micromanipulator and a picospritzer (General Valve) attached to a nitrogen tank. Using the micromanipulator, the tip of the micropipet was inserted into the embryo and a small volume of protein solution was expelled from the tip using positive pressure. To determine if our animal model could be used effectively to screen for these compounds, we performed a series of experiments in which we injected one of two different proteins having opposing effects on vessel formation—human endostatin (O'Reilly et al., Cell 88(2):277–285 (1997)) and human vascular endothelial growth factor (VEGF)—into an embryo. Endostatin, a collagen XVIII fragment, is an endogenous protein with potent anti-angiogenic activity. […] In preliminary experiments, we injected VEGF protein either into the yolk ball or into the perivitelline space between the yolk and the periderm. Because the second location is in the path of the venous return, proteins end up in the circulation of the embryo. To backfill the injection pipettes, we used a 2 mg/ml solution of VEGF. […] This is consistent with observations in other vertebrates. Drake et al., Proc. Natl. Acad. Sci. USA 92(17):7657–7661 (1995); Fouquet et al., supra. Endostatin was injected into the zebrafish as was VEGF.

[5] = 24 hour embryos pretreated with dye
[6] = 2 mg/ml solution, 24 hour embryos, AP staining at 72 hours

## CC(=O)Oc1ccccc1C(=O)O [Aspirin]
Mice and rats
  Mammalian models specific toxicity (from the literature): kidney,; also recorded: ureter,; also recorded: cardio-; also recorded: cranio-; also recorded: musculo-
Zebrafish embryos [1]; embryos exposed continuously for five days from 24 hours of development
  Zebrafish LD50: 101 mg/L
Zebrafish embryos [1]; five-day exposure
  Zebrafish specific toxicity observed: teratogen,; also recorded: kidney,; also recorded: muscle; also recorded: erratic

## COC(=O)CC[C@H](NC(=O)[C@H](CC(=O)OC)NC(=O)OCc1ccccc1)C(=O)N[C@H](C(=O)N[C@@H](CC(=O)OC)C(=O)CF)C(C)C [Caspase 3 inhibitor]
Zebrafish embryos [2]; yolk injection of 25 μM Caspase 3 inhibitor
  survival by 24 hours after the introduction of 100 μM Ibuprofen: all of the experimental embryos were dead
Zebrafish embryos [2]
  opacity at two hours after the addition of 100 μM Ibuprofen: still transparent
  opaque cells at one hour after 100 μM Ibuprofen: not in embryos injected with the Caspase inhibitor

## CC(C)Cc1ccc(C(C)C(=O)O)cc1 (centres unmarked) [Ibuprofen]
Zebrafish embryos [2]
  opacity at two hours after the addition of 100 μM Ibuprofen: completely opaque
  opaque cells at one hour after 100 μM Ibuprofen: opaque cells were observed
Zebrafish embryos [3]; 24 hour embryos pretreated with 100 nanomolar dye
  fluorescently labeled (dead or dying) cells within 1 hour: fluorescently labeled cells were detected in the posterior tip of the tail
Zebrafish embryos [3]; [5]
  fluorescently labeled cells at 1 hour and 30 minutes: labeled cells were detected in a large patch, extended from the tip of the tail to the level of the anus
  fluorescently labeled cells by two hours: fluorescently labeled cells could be seen throughout the embryo

## CO[C@@H]1[C@H](OC(=O)/C=C/C=C/C=C/C=C/C(=O)O)CC[C@]2(CO2)[C@H]1[C@@]1(C)O[C@@H]1CC=C(C)C [fumagillin]
Zebrafish embryo
  other effects / complications in the embryo: pericardial edema, developmental delay, and axial defects
  effect on blood vessel formation: reduction in angiogenesis
  diffusion into the zebrafish embryo: capable of diffusing into the zebrafish embryo

## Ovicillin
Zebrafish embryo
  other effects / complications in the embryo: pericardial edema
  effect on blood vessel formation: reduction in the subintestinal vessels
  diffusion into the zebrafish embryo: capable of diffusing into the zebrafish embryo

## VEGF
Zebrafish embryos [4]; [6]
  angiogenic phenotypes after injection into the yolk: the appearance of long spikes projecting from the subintestinal vessel basket; also recorded: increased vessel diameters in the subintestinal basket
  effect after injection into the perivitelline space: disruption of vessel formation; also recorded: fusion of large vessels, inappropriate vessel formation

## endostatin
Zebrafish embryos [4]; injected into the zebrafish as was VEGF
  effect on vessel formation after injection: inconsistent and thus uninterpretable
